Measurements as given in the supplement of paper PMC4862054.
Values joined by “and” are separate entries in the source; they are usually repeats but may differ in a detail not shown here. Equal values may be shown once.

Tests used:
SK-BR-3 = experiment: drug sensitivity score (DSS), CellTiter-Blue viability (DSS (AUC-based score)); higher = stronger viability inhibition; extreme values may be limits of the assay; conditions: incubation time: 72 h
Protocol: (§1)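 DSRT with the CellTiter-Blue (resazurin reduction) viability readout, fluorescence 560/590 nm, 72 h incubation. Plates were normalised to DMSO and benzethonium chloride controls. DSS is computed from the area under the fitted dose-response curve (5 or 9 concentrations).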

BT-474 = experiment: as above; conditions: incubation time: 72 h
Protocol: as §1

CAL-51 [1] = experiment: as above; conditions: incubation time: 72 h
Protocol: as §1

MDA-MB-453 [2] = experiment: as above; conditions: incubation time: 72 h
Protocol: as §1

MFM-223 = experiment: as above; conditions: incubation time: 72 h
Protocol: as §1

CAL-120 = experiment: as above; conditions: incubation time: 72 h
Protocol: as §1

HCC1937 = experiment: as above; conditions: incubation time: 72 h
Protocol: as §1

HDQ-P1 [3] = experiment: as above; conditions: incubation time: 72 h
Protocol: as §1

HCC1143 = experiment: as above; conditions: incubation time: 72 h
Protocol: as §1

HCC1599 = experiment: as above; conditions: incubation time: 72 h
Protocol: as §1

CAL-85-1 [4] = experiment: as above; conditions: incubation time: 72 h
Protocol: as §1

MDA-MB-231 = experiment: as above; conditions: incubation time: 72 h
Protocol: as §1

MDA-MB-436 = experiment: as above; conditions: incubation time: 72 h
Protocol: as §1

Hs578T = experiment: as above; conditions: incubation time: 72 h
Protocol: as §1

BT-549 = experiment: as above; conditions: incubation time: 72 h
Protocol: as §1

MDA-MB-468 = experiment: as above; conditions: incubation time: 72 h
Protocol: as §1

CAL-148 [5] = experiment: as above; conditions: incubation time: 72 h
Protocol: as §1

DU-4475 [6] = experiment: as above; conditions: incubation time: 72 h
Protocol: as §1

CAL-51 [7] = experiment: normalised viability (% of control), CellTiter-Blue; higher = more viable cells (about 100 = DMSO control); conditions: incubation time: 72 h
Protocol: (§2)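 DSRT, CellTiter-Blue viability, 72 h incubation. Signal is normalised to DMSO and benzethonium chloride controls. Value is the normalised response at dose 6.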

MDA-MB-453 [8] = experiment: as above; conditions: incubation time: 72 h
Protocol: as §2

HDQ-P1 [9] = experiment: as above; conditions: incubation time: 72 h
Protocol: as §2

CAL-85-1 [10] = experiment: as above; conditions: incubation time: 72 h
Protocol: as §2

CAL-148 [11] = experiment: as above; conditions: incubation time: 72 h
Protocol: as §2

DU-4475 [12] = experiment: as above; conditions: incubation time: 72 h
Protocol: as §2

MDA-MB-453 [13] = conditions: 72 h
How it was run: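 Breast cancer cell lines in 20 µl suspension were seeded onto 384-well plates pre-loaded with compound dissolved in 5 µl medium, then incubated 72 h. For viability, 2.5 µl CellTiter-Blue was added for 2 h at 37 °C and fluorescence read at 560/590 nm. Each plate was normalised to vehicle and a positive kill control and checked by Z'-factor. EC50 comes from the fitted percent-inhibition dose-response curve, censored at the highest concentration; rows with zero drug sensitivity score were dropped.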

| EC50, CellTiter-Blue viability (MDA-MB-453 [13]) [µM] | SMILES | drug sensitivity score (SK-BR-3) | drug sensitivity score (BT-474) | drug sensitivity score (CAL-51 [1]) | drug sensitivity score (MDA-MB-453 [2]) | drug sensitivity score (MFM-223) | drug sensitivity score (CAL-120) | drug sensitivity score (HCC1937) | drug sensitivity score (HDQ-P1 [3]) | drug sensitivity score (HCC1143) | drug sensitivity score (HCC1599) | drug sensitivity score (CAL-85-1 [4]) | drug sensitivity score (MDA-MB-231) | drug sensitivity score (MDA-MB-436) | drug sensitivity score (Hs578T) | drug sensitivity score (BT-549) | drug sensitivity score (MDA-MB-468) | drug sensitivity score (CAL-148 [5]) | drug sensitivity score (DU-4475 [6]) | normalised viability (CAL-51 [7]; 300 nM) [%] | normalised viability (MDA-MB-453 [8]; 300 nM) [%] | normalised viability (HDQ-P1 [9]; 300 nM) [%] | normalised viability (CAL-85-1 [10]; 300 nM) [%] | normalised viability (CAL-148 [11]; 300 nM) [%] | normalised viability (DU-4475 [12]; 300 nM) [%] | normalised viability (CAL-51 [7]; 30 nM) | normalised viability (MDA-MB-453 [8]; 30 nM) | normalised viability (HDQ-P1 [9]; 30 nM) | normalised viability (CAL-85-1 [10]; 30 nM) | normalised viability (CAL-148 [11]; 30 nM) | normalised viability (DU-4475 [12]; 30 nM) |
| --- | --- | --- | --- | --- | --- | --- | --- | --- | --- | --- | --- | --- | --- | --- | --- | --- | --- | --- | --- | --- | --- | --- | --- | --- | --- | --- | --- | --- | --- | --- | --- |
| – | CC(C)(C#N)c1cc(Cn2cncn2)cc(C(C)(C)C#N)c1 [Anastrozole] | 0 | 0 | 0 | 0 | 0 | 0 | 0 | 0 | 0 | 0 | 0 | 0 | 0 | 0 | 0 | 0 | 0 | 0 | 102 | 84.1 | 78 | 93.2 | 96.1 | 83.5 | – | – | – | – | – | – |
| – | O=C(O)CCCc1ccc(N(CCCl)CCCl)cc1 [Chlorambucil] | 0 | 0 | 0 | 0 | 0 | 0 | 6.58 | 0 | 0 | 0 | 0 | 0 | 0 | 0 | 0 | 4.32 | 0 | 0 | 104 | 103 | 85.8 | 105 | 110 | 90.9 | – | – | – | – | – | – |
| 0.0004 | CO[C@H]1C[C@@H]2CC[C@@H](C)[C@@](O)(O2)C(=O)C(=O)N2CCCC[C@H]2C(=O)O[C@H]([C@H](C)C[C@@H]2CC[C@@H](OCCO)[C@H](OC)C2)CC(=O)[C@H](C)/C=C(\C)[C@@H](O)[C@@H](OC)C(=O)[C@H](C)C[C@H](C)/C=C/C=C/C=C/1C [Everolimus] | 16.9 and 20.1 | 13.2 and 16 | 22.7 and 22.2 | 29.7 and 31.6 | 20 and 19.4 | 19.7 and 24.1 | – | – | – | – | 15 and 16.7 | – | 0 | – | 9.4 and 21.3 | 6.16 and 13.5 | 23 and 25.5 | 12.8 and 16.3 | – | – | – | – | – | – | 39.1% and 41.5% | 30.5% and 29.2% | 38.7% and 49% | 61.6% and 56.1% | 42.9% and 41.6% | 50.6% and 60.2% |
| 5.4 | CCCCCCCCc1ccc(CCC(N)(CO)CO)cc1 [Fingolimod] | 4.64 | 4.46 | 0 | 3.02 | 3.93 | 5.43 | 5.93 | 3.07 | 0 | 0 | 2.9 | 7.64 | 8.37 | 5.16 | 6.99 | 5.1 | 0 | 0 | 113 | 107 | 87.4 | 93.1 | 93.7 | 99.3 | – | – | – | – | – | – |
